# Reference: ChEMBL document CHEMBL2413072, “Synthesis and in vitro anticancer studies of novel C-2 arylidene congeners of lantadenes” (2013)
# Tests used:
# Type in all cases: functional
# [1] = tested on: HCT-116; assay: Growth inhibition of human HCT116 cells assessed as cell growth at 10^-4 M by sulforhodamine B assay; details: read-out: Activity
# [2] = tested on: MDA-MB-468; assay: Growth inhibition of human MDA-MB-468 cells assessed as cell growth at 10^-6 M by sulforhodamine B assay; details: read-out: Activity
# [3] = tested on: RPMI-8226; assay: Growth inhibition of human RPMI8226 cells assessed as cell growth at 10^-7 M by sulforhodamine B assay; details: read-out: Activity
# [4] = tested on: NCI-H226; assay: Growth inhibition of human NCI-H226 cells assessed as cell growth at 10^-8 M by sulforhodamine B assay; details: read-out: Activity
# [5] = tested on: SNB-75; assay: Growth inhibition of human SNB75 cells assessed as cell growth at 10^-6 M by sulforhodamine B assay; details: read-out: Activity
# [6] = tested on: HOP-62; assay: Growth inhibition of human HOP62 cells assessed as cell growth at 10^-4 M by sulforhodamine B assay; details: read-out: Activity
# [7] = tested on: RPMI-8226; assay: Growth inhibition of human RPMI8226 cells assessed as cell growth at 10^-4 M by sulforhodamine B assay; details: read-out: Activity
# [8] = tested on: SK-MEL-2; assay: Growth inhibition of human SK-MEL-2 cells by sulforhodamine B assay
# [9] = tested on: A498; assay: Growth inhibition of human A498 cells assessed as cell growth at 10^-4 M by sulforhodamine B assay; details: read-out: Activity
# [10] = Growth inhibition of human Hs 578T cells assessed as cell growth at 10^-7 M by sulforhodamine B assay; details: read-out: Activity
# [11] = tested on: UACC-257; assay: Growth inhibition of human UACC257 cells assessed as cell growth at 10^-4 M by sulforhodamine B assay; details: read-out: Activity
# [12] = tested on: HT-29; assay: Growth inhibition of human HT-29 cells assessed as cell growth at 10^-4 M by sulforhodamine B assay; details: read-out: Activity
# [13] = tested on: OVCAR-5; assay: Growth inhibition of human OVCAR5 cells assessed as cell growth at 10^-6 M by sulforhodamine B assay; details: read-out: Activity
# [14] = tested on: OVCAR-5; assay: Growth inhibition of human OVCAR5 cells assessed as cell growth at 10^-4 M by sulforhodamine B assay; details: read-out: Activity
# [15] = tested on: COLO 205; assay: Growth inhibition of human COLO205 cells assessed as cell growth at 10^-4 M by sulforhodamine B assay; details: read-out: Activity
# [16] = tested on: NCI-H322M; assay: Growth inhibition of human NCI-H322M cells assessed as cell growth at 10^-8 M by sulforhodamine B assay; details: read-out: Activity
# [17] = tested on: M14; assay: Growth inhibition of human M14 cells assessed as cell growth at 10^-8 M by sulforhodamine B assay; details: read-out: Activity
# [18] = tested on: UO-31; assay: Growth inhibition of human UO31 cells by sulforhodamine B assay
# [19] = tested on: KM12; assay: Growth inhibition of human KM12 cells assessed as cell growth at 10^-7 M by sulforhodamine B assay; details: read-out: Activity
# [20] = tested on: SF-539; assay: Growth inhibition of human SF539 cells by sulforhodamine B assay
# [21] = tested on: SF-539; assay: Growth inhibition of human SF539 cells assessed as cell growth at 10^-7 M by sulforhodamine B assay; details: read-out: Activity
# [22] = tested on: NCI-H322M; assay: Growth inhibition of human NCI-H322M cells assessed as cell growth at 10^-4 M by sulforhodamine B assay; details: read-out: Activity
# [23] = tested on: SK-OV-3; assay: Growth inhibition of human SKOV3 cells by sulforhodamine B assay
# [24] = tested on: NCI-H460; assay: Growth inhibition of human NCI-H460 cells assessed as cell growth at 10^-7 M by sulforhodamine B assay; details: read-out: Activity
# [25] = tested on: A498; assay: Growth inhibition of human A498 cells assessed as cell growth at 10^-7 M by sulforhodamine B assay; details: read-out: Activity
# [26] = tested on: HOP-92; assay: Growth inhibition of human HOP92 cells assessed as cell growth at 10^-8 M by sulforhodamine B assay; details: read-out: Activity
# [27] = tested on: BT-549; assay: Growth inhibition of human BT549 cells assessed as cell growth at 10^-8 M by sulforhodamine B assay; details: read-out: Activity
# [28] = tested on: SF-539; assay: Growth inhibition of human SF539 cells assessed as cell growth at 10^-8 M by sulforhodamine B assay; details: read-out: Activity
# [29] = tested on: SK-MEL-5; assay: Growth inhibition of human SK-MEL-5 cells assessed as cell growth at 10^-6 M by sulforhodamine B assay; details: read-out: Activity
# [30] = tested on: LOX IMVI; assay: Growth inhibition of human LOXIMVI cells assessed as cell growth at 10^-8 M by sulforhodamine B assay; details: read-out: Activity
# [31] = tested on: PC-3; assay: Growth inhibition of human PC3 cells by sulforhodamine B assay
# [32] = tested on: UACC-62; assay: Growth inhibition of human UACC62 cells by sulforhodamine B assay
# [33] = tested on: CAKI-1; assay: Growth inhibition of human CAKI-1 cells by sulforhodamine B assay
# [34] = tested on: PC-3; assay: Growth inhibition of human PC3 cells assessed as cell growth at 10^-7 M by sulforhodamine B assay; details: read-out: Activity
# [35] = tested on: SK-OV-3; assay: Growth inhibition of human SKOV3 cells assessed as cell growth at 10^-6 M by sulforhodamine B assay; details: read-out: Activity
# [36] = tested on: HT-29; assay: Growth inhibition of human HT-29 cells by sulforhodamine B assay
# [37] = tested on: NCI-H226; assay: Growth inhibition of human NCI-H226 cells by sulforhodamine B assay
# [38] = tested on: DU-145; assay: Growth inhibition of human DU145 cells assessed as cell growth at 10^-7 M by sulforhodamine B assay; details: read-out: Activity
# [39] = tested on: 786-0; assay: Growth inhibition of human 786-0 cells assessed as cell growth at 10^-8 M by sulforhodamine B assay; details: read-out: Activity
# [40] = read-out: LC50 (the source's name)
# [41] = read-out: pLC50 (the source's name) (converted)
structure (smiles),measurement,setting,value
C/C=C(/C)C(=O)O[C@@H]1CC(C)(C)C[C@H]2C3=CC[C@@H]4[C@@]5(C)CC[C@H](O)C(C)(C)[C@@H]5CC[C@@]4(C)[C@]3(C)CC[C@@]12C(=O)O [Reduced Lantadene A],growth at 100 µM,[1],-62%
same,growth at 1 µM,[2],84%
same,growth at 0.1 µM,[3],92%
same,growth at 0.01 µM,[4],91%
same,growth at 1 µM,[5],76%
same,growth at 100 µM,[6],-37%
same,growth at 100 µM,[7],-15%
same,GI50,[8]; read-out: GI50,2.2 µM
same,CC50,[8]; [40],8.29 µM
same,TGI,[8]; read-out: TGI,4.27 µM
same,GI50,[8]; read-out: pGI50 (converted),2.19 µM
same,CC50,[8]; [41],8.32 µM
same,TGI,[8]; read-out: pTGI (converted),4.27 µM
same,growth at 100 µM,[9],-74%
same,growth at 0.1 µM,[10],91%
same,growth at 100 µM,[11],-69%
same,growth at 100 µM,[12],-64%
same,growth at 1 µM,[13],113%
same,growth at 100 µM,[14],-73%
same,growth at 100 µM,[15],3%
same,growth at 0.01 µM,[16],102%
same,growth at 0.01 µM,[17],100%
same,GI50,[18]; read-out: GI50,1.64 µM
same,CC50,[18]; [40],5.91 µM
same,TGI,[18]; read-out: TGI,3.12 µM
same,GI50,[18]; read-out: pGI50 (converted),1.66 µM
same,CC50,[18]; [41],5.89 µM
same,TGI,[18]; read-out: pTGI (converted),3.09 µM
same,growth at 0.1 µM,[19],103%
same,GI50,[20]; read-out: GI50,3.37 µM
same,CC50,[20]; [40],56.3 µM
same,TGI,[20]; read-out: TGI,11.4 µM
same,GI50,[20]; read-out: pGI50 (converted),3.39 µM
same,CC50,[20]; [41],56.2 µM
same,TGI,[20]; read-out: pTGI (converted),11.5 µM
same,growth at 0.1 µM,[21],103%
same,growth at 100 µM,[22],-71%
same,GI50,[23]; read-out: GI50,1.87 µM
same,GI50,[23]; read-out: pGI50 (converted),1.86 µM
same,growth at 0.1 µM,[24],99%
same,growth at 0.1 µM,[25],77%
same,growth at 0.01 µM,[26],91%
same,growth at 0.01 µM,[27],99%
same,growth at 0.01 µM,[28],100%
same,growth at 1 µM,[29],83%
same,growth at 0.01 µM,[30],97%
same,GI50,[31]; read-out: GI50,1.34 µM
same,CC50,[31]; [40],6.01 µM
same,TGI,[31]; read-out: TGI,2.84 µM
same,GI50,[31]; read-out: pGI50 (converted),1.35 µM
same,CC50,[31]; [41],6.03 µM
same,TGI,[31]; read-out: pTGI (converted),2.82 µM
same,GI50,[32]; read-out: GI50,1.56 µM
same,CC50,[32]; [40],7.83 µM
same,TGI,[32]; read-out: TGI,3.5 µM
same,GI50,[32]; read-out: pGI50 (converted),1.55 µM
same,CC50,[32]; [41],7.76 µM
same,TGI,[32]; read-out: pTGI (converted),3.47 µM
same,GI50,[33]; read-out: GI50,2.48 µM
same,CC50,[33]; [40],56.3 µM
same,TGI,[33]; read-out: TGI,9.08 µM
same,GI50,[33]; read-out: pGI50 (converted),2.45 µM
same,CC50,[33]; [41],56.2 µM
same,TGI,[33]; read-out: pTGI (converted),9.12 µM
same,growth at 0.1 µM,[34],88%
same,growth at 1 µM,[35],98%
same,GI50,[36]; read-out: GI50,2.16 µM
same,LC50 (50% cell kill),[36]; read-out: LC50,8.77 µM
same,TGI,[36]; read-out: TGI,4.35 µM
same,GI50,[36]; read-out: pGI50 (converted),2.14 µM
same,LC50 (50% cell kill),[36]; read-out: pLC50 (converted),8.71 µM
same,TGI,[36]; read-out: pTGI (converted),4.37 µM
same,GI50,[37]; read-out: GI50,1.71 µM
same,LC50,[37]; read-out: LC50,8.43 µM
same,TGI,[37]; read-out: TGI,3.79 µM
same,GI50,[37]; read-out: pGI50 (converted),1.7 µM
same,LC50,[37]; read-out: pLC50 (converted),8.51 µM
same,TGI,[37]; read-out: pTGI (converted),3.8 µM
same,growth at 0.1 µM,[38],115%
same,growth at 0.01 µM,[39],101%
